For the series the following is noted: 22-membered ring.

Where two headings read alike, the source gives them in different places.

Take `CCC[P@@]1(=O)Cc2ccc(c(OC)c2)Nc2ncc(C(F)(F)F)c(n2)Nc2ccc(nc2C(=O)NC)-c2cn(nn2)CCCO1` (mixture of isomers): under “from CCC[CH2][Sn]([CH2]CCC)([CH2]CCC)[c]1cn(CCCOP(=O)(CCC)Cc2ccc(Nc3ncc(C(F)(F)F)c(Nc4ccc(Br)nc4C(=O)NC)n3)c(OC)c2)nn1, cc_pd bond”, the ring closure, isolated yield turned out to be 19%.

On to `CCC[P@]1(=O)Cc2ccc(c(OC)c2)Nc2ncc(C(F)(F)F)c(n2)Nc2ccc(nc2C(=O)NC)-c2cnn(c2)CCCO1` (mixture of isomers), for which, where the note is “from CCCP(=O)(O)Cc1ccc(Nc2ncc(C(F)(F)F)c(Nc3ccc(-c4cnn(CCCO)c4)nc3C(=O)NC)n2)c(OC)c1, ester bond, DCC, 2 steps”, the ring closure, isolated yield was 55%.

On to `CCO[P@]1(=O)Cc2ccc(c(OC)c2)Nc2ncc(C(F)(F)F)c(n2)Nc2ccc(cc2C(=O)N(CC)CC)-c2cnn(c2)CCCO1` (mixture of isomers), for which the ring closure, isolated yield (from CCOP(=O)(O)Cc1ccc(Nc2ncc(C(F)(F)F)c(Nc3ccc(-c4cnn(CCCO)c4)cc3C(=O)N(CC)CC)n2)c(OC)c1, ester bond, PyBOP/DIEA, DCE/DMF, 1.03 mM, 25.0 °C) worked out at 43%.

`CCO[P@]1(=O)Cc2ccc(c(OC)c2)Nc2ncc(C(F)(F)F)c(n2)Nc2ccc(nc2C(=O)NC)-c2cc(C(=O)OC)n(c2)CCCO1` (mixture of isomers) registered a ring closure, isolated yield (from CCOP(=O)(O)Cc1ccc(Nc2ncc(C(F)(F)F)c(Nc3ccc(-c4cc(C(=O)OC)n(CCCO)c4)nc3C(=O)NC)n2)c(OC)c1, ester bond, PyBOP/DIEA, DCE, 1.53 mM, 25.0 °C) of 58%.
